As a reminder, the IC50 is the concentration that gives 50% inhibition. A high value points to lower potency.

6 compounds from US8541584B2, “3-(1,2,3-triazol-4-yl) pyrrolo [2,3-b] pyridine derivatives” (Merck Patent GmbH, priority 2009, dated 2013) can be followed below.

Experiment [1] deals with T1, TANK binding kinase (TBK1) (Homo sapiens, UniProt Q9UHD2).
T1 sequence (Q9UHD2 1-729): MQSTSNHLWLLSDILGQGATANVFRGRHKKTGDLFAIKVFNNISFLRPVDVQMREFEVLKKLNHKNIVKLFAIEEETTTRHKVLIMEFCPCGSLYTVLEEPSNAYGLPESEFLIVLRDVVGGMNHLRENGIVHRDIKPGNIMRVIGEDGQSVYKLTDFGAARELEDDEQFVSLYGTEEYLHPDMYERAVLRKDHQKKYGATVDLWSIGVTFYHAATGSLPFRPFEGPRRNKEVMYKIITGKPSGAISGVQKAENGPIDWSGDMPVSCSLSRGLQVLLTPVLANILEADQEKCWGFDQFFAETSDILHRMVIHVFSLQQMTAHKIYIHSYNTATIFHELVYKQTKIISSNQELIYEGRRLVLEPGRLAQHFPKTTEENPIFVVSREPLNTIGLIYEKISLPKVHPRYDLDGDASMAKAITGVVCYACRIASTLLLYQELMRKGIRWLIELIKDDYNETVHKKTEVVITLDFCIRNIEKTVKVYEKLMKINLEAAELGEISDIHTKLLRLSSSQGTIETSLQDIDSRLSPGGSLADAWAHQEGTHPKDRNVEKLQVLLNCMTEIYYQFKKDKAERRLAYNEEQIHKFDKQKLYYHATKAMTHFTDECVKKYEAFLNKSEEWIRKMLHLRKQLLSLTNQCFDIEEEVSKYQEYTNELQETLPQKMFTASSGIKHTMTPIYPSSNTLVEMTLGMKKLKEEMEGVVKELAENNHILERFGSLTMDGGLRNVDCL
Description: TBK1 kinase test (384-well flashplate). It is filed as biochemical. The following applies: 0.6 nM TBK1, 10 μM ATP, 30° C., 120 min. How it is done: The kinase assay is performed as 384-well flashplate assay. 0.6 nM TANK binding kinase (TBK1), 800 nM biotinylated MELK-derived peptide (biotin-Ah-Ah-[…]) and 10 μM ATP (with 0.25 μCi of ^33P-ATP/well) are incubated in a total volume of 50 μl (10 mM MOPS, 10 mM magnesium acetate, 0.1 mM EGTA, 1 mM DTT, 0.02% of Brij35, 0.1% of BSA, pH 7.5) with or without test substance at 30° C. for 120 min. The reaction is stopped using 25 μl of 200 mM EDTA solution, filtered off with suction after 30 min at room temperature, and the wells are washed 3 times with 100 μl of 0.9% NaCl solution. The non-specific proportion of the kinase reaction (blank) is determined using 100 nM staurosporine. Radioactivity is measured in the Topcount. IC50 values are calculated using RS1.

Experiment [2] has as its system PDK1 kinase activity (P-T308-PKB) in PC3 cells. Description: Cellular testing of PDK1 kinase inhibitors (Luminex assay, P-T308-PKB in PC3 cells). It is filed as cell-based. As to conditions: Homo sapiens, PC-3, 0.5 h, serum-free, 30 min with test substance. How it is done: Description of the Method for Cellular Testing of PDK1 Kinase Inhibitors
The cellular assay for determination of the PDK1 kinase activity is performed as Luminex assay in the 96-well format. PC3 cells are sown at 20,000 cells per well in 100 μl of medium (45% of […]/45% of Ham's F12/10% of FCS) and incubated under serum-free conditions on the following day for 30 min with serial dilution of the test substance (7 concentrations). The cells are subsequently lysed using 90 μl of lysis buffer (20 mM Tris/HCl pH 8.0, 150 mM NaCl, 1% of NP40, 10% of glycerol, 1% of phosphatase inhibitor I, 1% of phosphatase inhibitor II, 0.1% of protease inhibitor Cocktail III, 0.01% of benzonase) per well, and the lysates are separated off from insoluble cell constituents by means of centrifugation through a 96-well filter plate (0.65 μm). The lysates are incubated overnight at 4° C. with shaking with Luminex beads to which an anti-total PKB antibody has been coupled. Detection is carried out on the following day by addition of a P-T308-PKB antibody and a species-specific PE-labelled secondary antibody. The determination of P-T308-PKB is carried out by measurement in the Luminex100 instrument by determination of 100 events per cavity in a measurement time of 60 sec. As pharmacological blank, the signals obtained from cells which have been treated with 10 μM staurosporin are subtracted from all other batches. The control value used for maximum phosphorylation of PKB on T308 are the signals from cells which have been treated only with the solvent (0.3% of DMSO). The values of the batches treated with test substance are calculated from this as percent of control, and IC50 values are determined by means of RS1.

As to `Cc1cccc(Cn2cc(-c3c[nH]c4ncc(-c5cnn(C)c5)cc34)nn2)c1` [Compound A7, 3-[1-(3-Methylbenzyl)-1H-1,2,3-triazol-4-yl]-5-(1-methyl-1H-pyrazol-4-yl)-1H-pyrrolo[2,3-b]pyridine], the 50% inhibitory concentration (IC50) was 0.5 to 1000 nM in experiment [1] and 1000 to 10000 nM in experiment [2].
The matching figures for `Cn1cc(-c2cnc3[nH]cc(-c4cn(Cc5ccncc5)nn4)c3c2)cn1` [Compound A9, 5-(1-Methyl-1H-pyrazol-4-yl)-3-(1-pyridin-4-ylmethyl-1H-1,2,3-triazol-4-yl)-1H-pyrrolo-[2,3-b]pyridine]: 0.5 to 1000 nM and 1000 to 10000 nM.
The matching figures for `Cn1cc(-c2cnc3[nH]cc(-c4cn(Cc5ccccc5F)nn4)c3c2)cn1` [Compound A17, 3-[1-(2-Fluorobenzyl)-1H-1,2,3-triazol-4-yl]-5-(1-methyl-1H-pyrazol-4-yl)-1H-pyrrolo-[2,3-b]pyridine]: 0.5 to 1000 nM and 0.5 to 1000 nM.
For `CC(c1ccccc1C(F)(F)F)n1cc(-c2c[nH]c3ncc(-c4cnn(C)c4)cc23)nn1` (stereo not drawn) [Compound A20, 5-(1-Methyl-1H-pyrazol-4-yl)-3-{1-[1-(2-trifluoromethylphenyl)ethyl]-1H-1,2,3-triazol-4-yl}-1H-pyrrolo[2,3-b]pyridine], in that order: 0.5 to 1000 nM and 1000 to 10000 nM.
On to `Cn1cc(-c2cnc3[nH]cc(-c4cn(Cc5cccc(F)c5F)nn4)c3c2)cn1` [Compound A25, 3-[1-(2,3-Difluorobenzyl)-1H-1,2,3-triazol-4-yl]-5-(1-methyl-1H-pyrazol-4-yl)-1H-pyrrolo-[2,3-b]pyridine], for which the concentration for half-maximal inhibition (IC50) in experiment [1] and in experiment [2] was 0.5 to 1000 nM in each case.
As for `Cn1cc(-c2cnc3[nH]cc(-c4cn(Cc5ccc6ncccc6c5)nn4)c3c2)cn1` [Compound A29, 6-{4-[5-(1-Methyl-1H-pyrazol-4-yl)-1H-pyrrolo[2,3-b]pyridin-3-yl]-1,2,3-triazol-1-ylmethyl}quinoline], the IC50 is 0.5 to 1000 nM in experiment [1] and 1000 to 10000 nM in experiment [2].
